# Legend:
# human mGluR3 (hmGluR3) = target: T1, human mGluR3 (hmGluR3) (Homo sapiens, UniProt Q14832); experiment: Human mGluR3 positive allosteric modulator evaluation using Ca++ functional assay; format: cell-based; details: hmGluR3 transiently over-expressed in HEK-293 cells; stimulated by EC50 glutamate concentration; intracellular Ca2+ (Fluo4AM, FLIPR Tetra)
# T1 construct: expressed in transfected cells; host or cells: HEK-293 cells, transient co-transfection by electroporation
# Procedure, shortened: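 HEK-293 cells transiently co-expressing hmGluR3, a chimeric G protein and two glutamate transporters; Fluo4 calcium read on FLIPR. Compound alone for 10 min (agonist), then EC50 glutamate for 3 min (PAM); 20-point curves gave EC50, duplicate, two independent runs.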
# T1 sequence (Q14832 23-879): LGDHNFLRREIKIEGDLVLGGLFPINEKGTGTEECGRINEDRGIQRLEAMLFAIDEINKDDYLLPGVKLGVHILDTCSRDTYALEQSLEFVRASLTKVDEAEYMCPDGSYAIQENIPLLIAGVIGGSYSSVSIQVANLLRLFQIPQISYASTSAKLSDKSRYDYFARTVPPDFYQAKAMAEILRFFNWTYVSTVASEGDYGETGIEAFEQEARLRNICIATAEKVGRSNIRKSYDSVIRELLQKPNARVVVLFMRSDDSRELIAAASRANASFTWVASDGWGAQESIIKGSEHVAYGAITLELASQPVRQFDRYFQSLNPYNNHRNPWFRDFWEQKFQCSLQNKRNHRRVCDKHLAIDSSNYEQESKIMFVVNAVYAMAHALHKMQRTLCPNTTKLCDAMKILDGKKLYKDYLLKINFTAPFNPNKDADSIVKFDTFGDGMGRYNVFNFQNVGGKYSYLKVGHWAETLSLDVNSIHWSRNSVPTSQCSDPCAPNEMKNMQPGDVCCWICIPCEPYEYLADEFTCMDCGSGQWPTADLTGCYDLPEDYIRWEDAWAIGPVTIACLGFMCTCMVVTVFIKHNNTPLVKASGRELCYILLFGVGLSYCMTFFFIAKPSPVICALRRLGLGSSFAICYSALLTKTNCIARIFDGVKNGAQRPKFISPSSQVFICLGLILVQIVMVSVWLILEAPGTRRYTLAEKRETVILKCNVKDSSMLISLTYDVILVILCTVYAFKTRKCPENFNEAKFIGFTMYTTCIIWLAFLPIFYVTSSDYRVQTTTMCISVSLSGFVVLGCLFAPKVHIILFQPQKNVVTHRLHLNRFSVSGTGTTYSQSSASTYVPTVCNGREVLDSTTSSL
SMILES,EC50 (human mGluR3 (hmGluR3)),melting point
"CN1C(=O)c2cccn2-c2cc(-c3ccc(C(F)(F)F)cn3)ccc2C12CC2 [Example 69, 5-Methyl-9-(5-trifluoromethylpyridin-2-yl)-spiro[benzo[f]pyrrolo[1,2-a][1,4]diazepine-6,1′-cyclopropan]-4(5H)-one]",100 to 1000 nM,78 to 89 °C
"CN1C(=O)c2cccn2-c2cc(-c3cccnc3C(C)(C)O)ccc2C12CC2 [Example 72, 5-Methyl-9-(2-(1-hydroxy-1-methyl-ethyl)-pyridin-3-yl)-spiro[benzo[f]pyrrolo[1,2-a][1,4]diazepine-6,1′-cyclopropan]-4(5H)-one]",> 1000 nM,220 to 228 °C
"CN1C(=O)c2cccn2-c2cc(-c3ccc(F)nc3)cc(F)c2C12CC2 [Example 74, 7-Fluoro-5-methyl-9-(6-fluoro-pyridin-3-yl)-spiro[benzo[f]pyrrolo[1,2-a][1,4]diazepine-6,1′-cyclopropan]-4(5H)-one]",< 100 nM,220 to 225 °C
"Cc1ccc2c(c1)C1(CC1)N(C)C(=O)c1cccn1-2 [Example 87, 5,8-Dimethyl-spiro[benzo[f]pyrrolo[1,2-a][1,4]diazepine-6,1′-cyclopropan]-4(5H)-one]",> 1000 nM,143 to 150 °C
"CN1C(=O)c2cccn2-c2ccc(N3CCOCC3)cc2C12CC2 [Example 88, 8-Morpholin-4-yl-5-methyl-spiro[benzo[f]pyrrolo[1,2-a][1,4]diazepine-6,1′-cyclopropan]-4(5H)-one]",> 1000 nM,140 to 146 °C
"CN1C(=O)c2cc(-c3ccccc3)cn2-c2cc(-c3cccnc3C(F)(F)F)ccc2C12CC2 [Example 100, 5-Methyl-2-phenyl-9-(2-trifluoromethyl-pyridin-3-yl)-spiro[benzo[f]pyrrolo[1,2-a][1,4]diazepine-6,1′-cyclopropan]-4(5H)-one]",> 1000 nM,199 to 204 °C
"CN1C(=O)c2cc(-c3ccccc3)cn2-c2cc(-c3ccc(F)nc3)ccc2C12CC2 [Example 106, 5-Methyl-2-phenyl-9-(6-fluoro-pyridin-3-yl)-spiro[benzo[f]pyrrolo[1,2-a][1,4]diazepine-6,1′-cyclopropan]-4(5H)-one]",< 100 nM,177 to 184 °C
"CN1C(=O)c2cc(-c3ccccc3)cn2-c2cc(-c3ccc(F)cn3)ccc2C12CC2 [Example 110, 5-Methyl-2-phenyl-9-(5-fluoro-pyridin-2-yl)-spiro[benzo[f]pyrrolo[1,2-a][1,4]diazepine-6,1′-cyclopropan]-4(5H)-one]",< 100 nM,140 to 151 °C
"CN1C(=O)c2cc(-c3ccccc3)cn2-c2cc(-c3cccnc3F)ccc2C12CC2 [Example 113, 5-Methyl-2-phenyl-9-(2-fluoro-pyridin-3-yl)-spiro[benzo[f]pyrrolo[1,2-a][1,4]diazepine-6,1′-cyclopropan]-4(5H)-one]",100 to 1000 nM,143 to 149 °C
"COc1ncccc1-c1ccc2c(c1)-n1cc(-c3ccccc3)cc1C(=O)N(C)C21CC1 [Example 116, 5-Methyl-2-phenyl-9-(2-methoxy-pyridin-3-yl)-spiro[benzo[f]pyrrolo[1,2-a][1,4]diazepine-6,1′-cyclopropan]-4(5H)-one]",100 to 1000 nM,183 to 186 °C
"CN1C(=O)c2cc(-c3ccccc3)nn2-c2cc(-c3ccc(N)cc3)ccc2C12CC2 [Example 124, 9-(4-Amino-phenyl)-5-methyl-2-phenyl-spiro[benzo[f]pyrazolo[1,5-a][1,4]diazepine-6,1′-cyclopropan]-4(5H)-one]",> 1000 nM,195 to 209 °C

# More lines, now with the values ahead:
EC50 (human mGluR3 (hmGluR3)),melting point,SMILES
> 1000 nM,198 to 203 °C,"COC(=O)c1ncccc1-c1ccc2c(c1)-n1cccc1C(=O)N(C)C21CC1 [Example 71, 5-Methyl-9-(2-methoxycarbonylpyridin-3-yl)-spiro[benzo[f]pyrrolo[1,2-a][1,4]diazepine-6,1′-cyclopropan]-4(5H)-one]"
< 100 nM,153 to 157 °C,"CN1C(=O)c2cccn2-c2c(ccc(-c3ccc(F)nc3)c2F)C12CC2 [Example 76, 10-Fluoro-5-Methyl-9-(6-fluoro-pyridin-3-yl)-spiro[benzo[f]pyrrolo[1,2-a][1,4]diazepine-6,1′-cyclopropan]-4(5H)-one]"
100 to 1000 nM,185 to 192 °C,"CN1C(=O)c2cccn2-c2cc(-c3ccc(F)nc3)c(F)cc2C12CC2 [Example 78, 8-Fluoro-5-methyl-9-(6-fluoro-pyridin-3-yl)-spiro[benzo[f]pyrrolo[1,2-a][1,4]diazepine-6,1′-cyclopropan]-4(5H)-one]"
> 1000 nM,143 to 166 °C,"CN1C(=O)c2ccc(-c3ccnn3C)n2-c2cc(-c3ccc(F)cn3)ccc2C12CC2 [Example 86, 5-Methyl-1-(2-methyl-2H-pyrazol-3-yl)9-(5-fluoropyridin-2-yl)-spiro[benzo[f]pyrrolo[1,2-a][1,4]diazepine-6,1′-cyclopropan]-4(5H)-one]"
> 1000 nM,126 to 134 °C,"Cc1cccc2c1C1(CC1)N(C)C(=O)c1cccn1-2 [Example 89, 5,7-Dimethyl-spiro[benzo[f]pyrrolo[1,2-a][1,4]diazepine-6,1′-cyclopropan]-4(5H)-one]"
> 1000 nM,200 to 207 °C,"Cc1cccc2c1-n1cccc1C(=O)N(C)C21CC1 [Example 90, 5,10-Dimethyl-spiro[benzo[f]pyrrolo[1,2-a][1,4]diazepine-6,1′-cyclopropan]-4(5H)-one]"
> 1000 nM,250 °C,"CN1C(=O)c2cccn2-c2c(C#N)cccc2C12CC2 [Example 91, 10-Cyano-5-methyl-spiro[benzo[f]pyrrolo[1,2-a][1,4]diazepine-6,1′-cyclopropan]-4(5H)-one]"
< 100 nM,> 250 °C,"CN1C(=O)c2cc(-c3ccccc3)cn2-c2cc(-c3cccc(C(=O)O)c3)ccc2C12CC2 [Example 94, 3-(5-methyl-4-oxo-2-phenyl-4,5-dihydrospiro[benzo[f]pyrrolo[1,2-a][1,4]diazepine-6,1′-cyclopropan]-9-yl)benzoic acid]"
100 to 1000 nM,130 to 141 °C,"CN1C(=O)c2cc(-c3ccccc3)cn2-c2cc(-c3cnccn3)ccc2C12CC2 [Example 108, 5-Methyl-2-phenyl-9-pyrazin-2-yl-spiro[benzo[f]pyrrolo[1,2-a][1,4]diazepine-6,1′-cyclopropan]-4(5H)-one]"
100 to 1000 nM,200 to 204 °C,"CN1C(=O)c2cc(-c3ccccc3)cn2-c2cc(-c3ccc(C#N)nc3)ccc2C12CC2 [Example 117, 5-Methyl-2-phenyl-9-(6-cyano-pyridin-3-yl)-spiro[benzo[f]pyrrolo[1,2-a][1,4]diazepine-6,1′-cyclopropan]-4(5H)-one]"
> 1000 nM,117 to 123 °C,"CN1C(=O)c2cc(-c3ccccc3)cn2-c2ccc(N3CCOCC3)cc2C12CC2 [Example 120, 8-Morpholin-4-yl-5-methyl-2-phenyl-spiro[benzo[f]pyrrolo[1,2-a][1,4]diazepine-6,1′-cyclopropan]-4(5H)-one]"
> 1000 nM,133 to 140 °C,"CN1C(=O)c2cc(-c3ccccc3)nn2-c2cc(-c3ccccc3)ccc2C12CC2 [Example 123, 2,9-Diphenyl-5-methyl-2-spiro[benzo[f]pyrazolo[1,5-a][1,4]diazepine-6,1′-cyclopropan]-4(5H)-one]"

# Reference: patent US11008323B2, “Substituted tricyclic 1,4-benzodiazepinone derivatives as allosteric modulators of group II metabotropic glutamate receptors” (Domain Therapeutics, priority 2015, dated 2021)
